Results: US20040077656A1, “Quinolines and nitrogenated derivatives thereof substituted in 4-position by a piperazine-containing moiety and their use as antibacterial agents” (priority 2000, published 2004)
Where a name gives a salt, the structure may show the parent alone. Read-outs that look alike come from different tables or passages of the source.

System: S. aureus Oxford, S. aureus WCUH29, S. pneumoniae 1629, S. pneumoniae N1387, S. pneumoniae ERY 2
Assay: MIC of test compounds against various organisms
Type: cell-based
Method: The MIC (μg/ml) of test compounds against various organisms was determined: S. aureus Oxford, S. aureus WCUH29, S. pneumoniae 1629, S. pneumoniae N1387, S. pneumoniae ERY 2.

MIC (against one or more of S. aureus Oxford, S. aureus WCUH29, S. pneumoniae 1629, S. pneumoniae N1387, S. pneumoniae ERY 2, read-out: MIC) [µg/mL]	Structure (SMILES)	MIC [µg/mL]
< 1	COc1ccc2nccc([C@@H](O)CN3CCN(CCNC(=O)c4cccs4)CC3)c2c1 [Example 7, Thiophene-2-carboxylic acid (2-{14[(R)-2-hydroxy-2-(6-methoxy-quinolin-4-yl)-ethyl]-piperazin-1-yl}-ethyl)-amide Dioxalate Salt]	–
–	COc1ccc2nccc([C@@H](O)CN3CCN(CCCCc4ccccc4)CC3)c2c1 [Example 12, (R)-1-(6-Methoxy-quinolin-4-yl)-2-[4-(4-phenyl-butyl)piperazin-1-yl]-ethanol Dioxalate]	< 1
